Experimental data as given in patent US8765730B2 (Hoffmann-La Roche Inc, priority 2010, dated 2014).

Molecular target: T1, human GPBAR1 receptor (Homo sapiens, UniProt Q8TDU6)
T1 construct: expressed in transfected cells
T1 sequence (Q8TDU6 1-330): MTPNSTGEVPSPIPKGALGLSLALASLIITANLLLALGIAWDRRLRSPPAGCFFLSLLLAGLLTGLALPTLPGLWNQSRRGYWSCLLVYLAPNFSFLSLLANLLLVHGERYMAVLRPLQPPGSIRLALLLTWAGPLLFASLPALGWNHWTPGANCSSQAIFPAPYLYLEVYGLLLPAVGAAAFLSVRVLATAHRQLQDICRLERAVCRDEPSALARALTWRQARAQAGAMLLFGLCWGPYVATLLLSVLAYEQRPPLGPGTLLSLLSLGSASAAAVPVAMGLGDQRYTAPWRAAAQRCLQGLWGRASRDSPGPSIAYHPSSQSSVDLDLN
Assay: functional cAMP assay in CHO-dhfr(minus) cells expressing human GPBAR1 receptors
Format: cell-based
Details: human EC50, functional cAMP assay, 30 min at 30° C.
Outline: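 Agonist cAMP read-out: stable GPBAR1 CHO-dhfr− clone, 30 min compound exposure at 30° C following 30 min IBMX (1 mM) preincubation in Krebs Ringer bicarbonate. Time-resolved energy-transfer detection gives EC50; parental CHO cells serve as counter-screen.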

Compound | EC50 [nM]
CCNC(=O)c1ccc(C(C/C(=N\O)c2ccc(=O)n(C)c2)c2ccccc2Cl)cc1F (centres unmarked) [Example 245, (E)-4-(1-(2-Chlorophenyl)-3-(hydroxyimino)-3-(1-methyl-6-oxo-1,6-dihydropyridin-3-yl)propyl)-N-ethyl-2-fluorobenzamide] | 250
Cc1ccccc1C(Cc1ccc(Br)cc1)/C(=N\O)c1ccncc1 (centres unmarked) [Example 44, (E)-3-(4-bromo-phenyl)-1-pyridin-4-yl-2-o-tolyl-propan-1-one oxime] | 421
Cn1cc(/C(CC(c2ccc(-c3ccc(C(=O)O)c(F)c3)cc2)c2ccc(Cl)cc2Cl)=N/O)ccc1=O (single isomer, unassigned) [Example 474, 4′-[(−)-1-(2,4-Dichloro-phenyl)-3-[(E)-hydroxyimino]-3-(1-methyl-6-oxo-1,6-dihydro-pyridin-3-yl)-propyl]-3-fluoro-biphenyl-4-carboxylic acid] | 43
Cc1cc(Cl)ccc1C(C/C(=N\O)c1ccc(=O)n(C)c1)c1ccc(Br)cc1 (centres unmarked) [Example 226, 5-{3-(4-Bromo-phenyl)-3-(4-chloro-2-methyl-phenyl)-1-[(E)-hydroxyimino]-propyl}-1-methyl-1H-pyridin-2-one] | 38
Cc1ccc(C(C/C(=N\O)c2ccc(=O)n(C)c2)c2ccc(-c3ccc(C(=O)O)cc3)cc2)c(F)c1 (centres unmarked) [Example 411, (E)-4′-(1-(2-fluoro-4-methylphenyl)-3-(hydroxyimino)-3-(1-methyl-6-oxo-1,6-dihydropyridin-3-yl)propyl)biphenyl-4-carboxylic acid] | 995
Cn1cc(/C(CC(c2ccc(-c3ccc(CC#N)cc3)cc2)c2ccc(Cl)cc2F)=N/O)ccc1=O (centres unmarked) [Example 459, {4′-[1-(4-Chloro-2-fluoro-phenyl)-3-[(E)-hydroxyimino]-3-(1-methyl-6-oxo-1,6-dihydro-pyridin-3-yl)-propyl]-biphenyl-4-yl}-acetonitrile] | 364
CN1CCC(N(C)C(=O)c2ccc(C(C/C(=N\O)c3ccc(=O)n(C)c3)c3ccccc3Cl)cc2F)CC1 (centres unmarked) [Example 218, (E)-4-(1-(2-Chlorophenyl)-3-(hydroxyimino)-3-(1-methyl-6-oxo-1,6-dihydropyridin-3-yl)propyl)-2-fluoro-N-methyl-N-(1-methylpiperidin-4-yl)benzamide] | 1640
Cc1ccccc1C(C/C(=N\O)c1ccc(=O)n(C)c1)c1ccc(-c2ccccc2C(=O)O)cc1F (centres unmarked) [Example 236, 3′-Fluoro-4′-[3-[(E)-hydroxyimino]-3-(1-methyl-6-oxo-1,6-dihydro-pyridin-3-yl)-1-o-tolyl-propyl]-biphenyl-2-carboxylic acid] | 1200
OCc1ccc(-c2ccc(C(C/C(=N\O)c3ccncc3)c3ccccc3)cc2)cc1 (centres unmarked) [Example 27, (E)-3-(4′-Hydroxymethyl-biphenyl-4-yl)-3-phenyl-1-pyridin-4-yl-propan-1-one oxime] | 92
Cc1cc(F)ccc1C(C/C(=N\O)c1ccc(=O)n(C)c1)c1ccc(-c2ccc(NC(=O)CC(=O)O)cc2)cc1 (centres unmarked) [Example 400, N-{4′-[1-(4-Fluoro-2-methyl-phenyl)-3-[(E)-hydroxyimino]-3-(1-methyl-6-oxo-1,6-dihydro-pyridin-3-yl)-propyl]-biphenyl-4-yl}-malonamic acid] | 49
COc1ccc(C2(C/C(=N/O)c3ccnc(C)c3)CCCCC2)cc1 [Example 159, (Z)-2-[1-(4-Methoxy-phenyl)-cyclohexyl]-1-(2-methyl-pyridin-4-yl)-ethanone oxime] | 5560
Cn1cc(/C(CC(c2ccc(Br)cc2)C2CCC2)=N/O)ccc1=O (centres unmarked) [Example 179, 5-{3-(4-Bromo-phenyl)-3-cyclobutyl-1-[(E)-hydroxyimino]-propyl}-1-methyl-1H-pyridin-2-one] | 165
O/N=C(/CC(c1ccccc1)c1ccccc1)c1cc(Cl)nc(Cl)c1 [Example 73, (Z)-1-(2,6-dichloro-pyridin-4-yl)-3,3-diphenyl-propan-1-one oxime] | 4430

Next, values leading:

EC50 [nM] | Compound
24 | Cc1cc(/C(C[C@H](c2ccc(N3CC4(CSC4)C3)cc2)c2ccccc2C)=N/O)ccn1 [Example 371, (3R,E)-3-(4-(2-thia-6-azaspiro[3.3]heptan-6-yl)phenyl)-1-(2-methylpyridin-4-yl)-3-o-tolylpropan-1-one oxime]
1620 | Cc1ccccc1C(CC(=NO)c1ccncc1)c1cccc(C(=O)O)c1 (racemic) [Example 71, 3-{3-[Hydroxyimino]-3-pyridin-4-yl-1-o-tolyl-propyl}-benzoic acid]
81 | Cn1cc(/C(CC(c2ccc(S(C)(=O)=O)cc2)c2cc(Cl)cc(Cl)c2)=N/O)ccc1=O (centres unmarked) [Example 352, (E)-5-(3-(3,5-Dichlorophenyl)-1-(hydroxyimino)-3-(4-(methylsulfonyl)phenyl)propyl)-1-methylpyridin-2(1H)-one]
122 | Cc1cc(/C(CC(c2cccc(S(C)(=O)=O)c2)c2ccccc2C)=N/O)ccn1 (centres unmarked) [Example 391, (E)-1-(2-methylpyridin-4-yl)-3-(3-(methylsulfonyl)phenyl)-3-o-tolylpropan-1-one oxime]
168 | Cc1cc(Cl)ccc1[C@H](C/C(=N\O)c1cc[n+]([O-])c(C)c1)c1ccc(Br)cc1 [Example 384, (R,E)-4-(3-(4-Bromophenyl)-3-(4-chloro-2-methylphenyl)-1-(hydroxyimino)propyl)-2-methylpyridine 1-oxide]
5 | Cc1cc(/C(C[C@@H](c2ccc(-c3ccc(C(=O)O)c(Cl)c3)cc2)c2ccc(Cl)cc2F)=N/O)ccn1 (single isomer, unassigned) [Example 453, (+)-3-Chloro-4′-[1-(4-chloro-2-fluoro-phenyl)-3-[(E)-hydroxyimino]-3-(2-methyl-pyridin-4-yl)-propyl]-biphenyl-4-carboxylic acid]
4 | Cc1cc(/C(C[C@H](c2ccc(-c3nnc(C4CC4)o3)cc2)c2ccccc2C)=N/O)ccn1 [Example 418, ((−), E)-3-(4-(5-Cyclopropyl-1,3,4-oxadiazol-2-yl)phenyl)-1-(2-methylpyridin-4-yl)-3-o-tolylpropan-1-one oxime]
12 | Cc1cc(/C(CC(c2ccc(Br)cc2)c2ccc(F)cc2C)=N/O)ccn1 (centres unmarked) [Example 140, (E)-3-(4-Bromophenyl)-3-(4-fluoro-2-methylphenyl)-1-(2-methylpyridin-4-yl)propan-1-one oxime]
17 | Cc1cc(/C(CC(c2ccc(-c3ccc(C(=O)O)cc3)cc2)c2ccc(Cl)cc2C)=N/O)ccn1 (centres unmarked) [Example 139, (E)-4′-(1-(4-chloro-2-methylphenyl)-3-(hydroxyimino)-3-(2-methylpyridin-4-yl)propyl)biphenyl-4-carboxylic acid]
46 | Cc1ccccc1C(CC(=NO)c1cc(Cl)ncc1F)c1ccc(Br)cc1 (racemic) [Example 127, 3-(4-Bromo-phenyl)-1-(2-chloro-5-fluoro-pyridin-4-yl)-3-o-tolyl-propan-1-one oxime]
81 | Cc1cc(/C(CC(c2ccc(C(=O)N3CCN(S(C)(=O)=O)CC3)cc2)c2ccc(F)cc2F)=N/O)ccn1 (centres unmarked) [Example 439, 3-(2,4-Difluoro-phenyl)-3-[4-(4-methanesulfonyl-piperazine-1-carbonyl)-phenyl]-1-(2-methyl-pyridin-4-yl)-propan-1-one oxime]
39 | Cc1cccnc1C(C/C(=N\O)c1ccncc1)c1ccc(N(C)C)cc1 (centres unmarked) [Example 65, (E)-3-(4-Dimethylamino-phenyl)-3-(3-methyl-pyridin-2-yl)-1-pyridin-4-yl-propan-1-one oxime]
28 | Cc1ccccc1[C@H](C/C(Cc1ccncc1)=N\O)c1ccc(Br)cc1 [Example 261, (E,R)-4-(4-bromophenyl)-1-(pyridin-4-yl)-4-o-tolylbutan-2-one oxime]
7 | Cc1ccccc1[C@H](C/C(=N\O)c1ccc(=O)n(C)c1)c1ccc(C#N)cc1 [Example 498, (R,E)-4-(3-(Hydroxyimino)-3-(1-methyl-6-oxo-1,6-dihydropyridin-3-yl)-1-o-tolylpropyl)benzonitrile]
5120 | Cc1ccccc1C(C/C(=N\O)c1cc(C)c(O)c(C)c1)c1ccc(Br)cc1 (centres unmarked) [Example 152, (E)-3-(4-Bromo-phenyl)-1-(4-hydroxy-3,5-dimethyl-phenyl)-3-o-tolyl-propan-1-one oxime]
108 | CCS(=O)(=O)c1ccc(-c2ccc(C(C/C(=N\O)c3ccncc3)c3ccccc3)cc2)cc1 (centres unmarked) [Example 26, (E)-3-(4′-Ethanesulfonyl-biphenyl-4-yl)-3-phenyl-1-pyridin-4-yl-propan-1-one oxime]
1 | Cc1cc(/C(C[C@H](c2ccc(N3CCC(C(N)=O)CC3)cc2)c2ccccc2C)=N/O)ccn1 [Example 367, (R,E)-1-(4-(3-(Hydroxyimino)-3-(2-methylpyridin-4-yl)-1-o-tolylpropyl)phenyl)piperidine-4-carboxamide]
10 | Cc1cc(/C(C[C@H](c2ccc(C3CN(S(C)(=O)=O)C3)cc2)c2ccccc2C)=N/O)ccn1 [Example 484, (R,E)-1-(2-Methylpyridin-4-yl)-3-(4-(1-(methylsulfonyl)azetidin-3-yl)phenyl)-3-o-tolylpropan-1-one oxime]
7 | Cc1cc(C(CC(c2ccc(-c3ccc(C(=O)NCCC(=O)O)cc3)cc2)c2ccccc2C)=NO)ccn1 (racemic) [Example 89, 3-({4′-[3-[Hydroxyimino]-3-(2-methyl-pyridin-4-yl)-1-o-tolyl-propyl]-biphenyl-4-carbonyl}-amino)-propionic acid]
